Assay results from patent US11192867B2, “Microbiocidal oxadiazole derivatives” (SYNGENTA PARTICIPATIONS AG, priority 2016, dated 2021).

What was measured:
[1] = system: Glomerella lagenarium (Colletotrichum lagenarium); assay: Fungicidal activity against Glomerella lagenarium (Colletotrichum lagenarium) liquid culture / cucumber / preventative (anthracnose); type: cell-based; settings: Colletotrichum orbiculare, 72 h; 20 ppm in the applied formulation; liquid culture (PDB), growth inhibition measured photometrically 3 to 4 days after application; vs untreated control; read-out: disease control
Description: Mycelia fragments or conidia suspensions of a fungus prepared either freshly from liquid cultures of the fungus or from cryogenic storage, are directly mixed into nutrient broth. DMSO solutions of the test compound (max. 10 mg/ml) are diluted with 0.025% Tween20 by a factor of 50 and 10 μl of this solution is pipetted into a microtiter plate (96-well format). The nutrient broth containing the fungal spores/mycelia fragments is then added to give an end concentration of the tested compound. The test plates are incubated in the dark at 24° C. and 96% relative humidity. The inhibition of fungal growth is determined photometrically after 2 to 7 days, depending on the pathosystem, and percent antifungal activity relative to the untreated check is calculated.
Conidia of the fungus from cryogenic storage are directly mixed into nutrient broth (PDB—potato dextrose broth). After placing a (DMSO) solution of test compound into a microtiter plate (96-well format), the nutrient broth containing the fungal spores is added. The test plates are incubated at 24° C. and the inhibition of growth is measured photometrically 3 to 4 days after application.
The following compounds at 20 ppm in the applied formulation give at least 80% disease control in this test when compared to untreated control under the same conditions, which show extensive disease development.

Phakopsora pachyrhizi = assay: Fungicidal activity against Phakopsora pachyrhizi / soybean / leaf disc preventative (Asian soybean rust); type: in vivo; settings: foliar, 200 ppm in the applied formulation, soybean leaf disks, vs untreated control, read-out: disease control
Description: Leaf disks or leaf segments of various plant species are cut from plants grown in a greenhouse. The cut leaf disks or segments are placed in multiwell plates (24-well format) onto water agar. The leaf disks are sprayed with a test solution before (preventative) or after (curative) inoculation. Compounds to be tested are prepared as DMSO solutions (max. 10 mg/ml) which are diluted to the appropriate concentration with 0.025% Tween20 just before spraying. The inoculated leaf disks or segments are incubated under defined conditions (temperature, relative humidity, light, etc.) according to the respective test system. A single evaluation of disease level is carried out 3 to 14 days after inoculation, depending on the pathosystem. Percent disease control relative to the untreated check leaf disks or segments is then calculated. Soybean leaf disks are placed on water agar in multiwell plates (24-well format) and sprayed with the formulated test compound diluted in water. One day after application leaf discs are inoculated by spraying a spore suspension on the lower leaf surface. After an incubation period in a climate cabinet of 24-36 hours in darkness at 20° C. and 75% rh leaf disc are kept at 20° C. with 12 hours light/12 hours and 75% rh. The activity of a compound is assessed as percent disease control compared to untreated when an appropriate level of disease damage appears in untreated check leaf disks (12 to 14 days after application). The following compounds at 200 ppm in the applied formulation give at least 80% disease control in this test when compared to untreated control leaf disks under the same conditions, which show extensive disease development.

[2] = system: Puccinia recondita f. sp. Tritici; assay: Fungicidal activity against Puccinia recondita f. sp. Tritici / wheat / leaf disc preventative (brown rust); type: in vivo; settings: foliar, 200 ppm in the applied formulation, wheat leaf segments cv. Kanzler, inoculated 1 day after application, vs untreated control, read-out: disease control
Description: Leaf disks or leaf segments of various plant species are cut from plants grown in a greenhouse. The cut leaf disks or segments are placed in multiwell plates (24-well format) onto water agar. The leaf disks are sprayed with a test solution before (preventative) or after (curative) inoculation. Compounds to be tested are prepared as DMSO solutions (max. 10 mg/ml) which are diluted to the appropriate concentration with 0.025% Tween20 just before spraying. The inoculated leaf disks or segments are incubated under defined conditions (temperature, relative humidity, light, etc.) according to the respective test system. A single evaluation of disease level is carried out 3 to 14 days after inoculation, depending on the pathosystem. Percent disease control relative to the untreated check leaf disks or segments is then calculated. Wheat leaf segments cv. Kanzler were placed on agar in multiwell plates (24-well format) and sprayed with the formulated test compound diluted in water. The leaf disks were inoculated with a spore suspension of the fungus 1 day after application. The inoculated leaf segments were incubated at 19° C. and 75% relative humidity (rh) under a light regime of 12 hours light/12 hours darkness in a climate cabinet and the activity of a compound was assessed as percent disease control compared to untreated when an appropriate level of disease damage appears in untreated check leaf segments (7 to 9 days after application). The following compounds at 200 ppm in the applied formulation give at least 80% disease control in this test when compared to untreated control leaf disks under the same conditions, which show extensive disease development.

Row | SMILES | inhibition of growth at 20 ppm [1] | pest or weed control at 200 ppm (Phakopsora pachyrhizi) | pest or weed control at 200 ppm [2]
1 | CC(CNC(=O)c1ccc(-c2noc(C(F)(F)F)n2)cc1)=NOCc1ccccc1 [Compound 1.134, N-(2-benzyloxyimino-propyl)-4-[5-(trifluoromethyl)-1,2,4-oxadiazol-3-yl]benzamide] | ≥ 80% | ≥ 80% | 
2 | CCCON=CC(C)NC(=O)c1ccc(-c2noc(C(F)(F)F)n2)cc1 (stereo not drawn) [Compound 1.27, N-(1-methyl-2-propoxyimino-ethyl)-4-[5-(trifluoromethyl)-1,2,4-oxadiazol-3-yl]benzamide] | ≥ 80% | ≥ 80% | 
3 | CC(C=NOCC=C(Cl)Cl)NC(=O)c1ccc(-c2noc(C(F)(F)F)n2)cc1 (stereo not drawn) [Compound 1.34, N-[2-(3,3-dichloroallyl-oxyimino)-1-methyl-ethyl]-4-[5-(trifluoromethyl)-1,2,4-oxadiazol-3-yl]benzamide] | ≥ 80% | ≥ 80% | 
4 | CC(CNC(=O)c1ccc(-c2noc(C(F)(F)F)n2)cc1)=NOCC(=O)O [Compound 1.109, 2-[[1-methyl-2-[[4-[5-(trifluoromethyl)-1,2,4-oxadiazol-3-yl]benzoyl]amino]ethylidene]amino] oxyacetic acid] | ≥ 80% |  | ≥ 80%
5 | CCCCON=CCNC(=O)c1ccc(-c2noc(C(F)(F)F)n2)cc1 [Compound 1.85, N-(2-butoxyiminoethyl)-4-[5-(trifluoromethyl)-1,2,4-oxadiazol-3-yl]benzamide] | ≥ 80% | ≥ 80% | 
6 | COc1ccc(CON=C(C)CNC(=O)c2ccc(-c3noc(C(F)(F)F)n3)cc2)cc1 [Compound 1.108, N-[2-[(4-methoxyphenyl)methoxyimino]propyl]-4-[5-(trifluoromethyl)-1,2,4-oxadiazol-3-yl]benzamide] | ≥ 80% |  | 
7 | CC(C=NOCc1ccccc1F)NC(=O)c1ccc(-c2noc(C(F)(F)F)n2)cc1 (stereo not drawn) [Compound 1.24, N-[2-[(2-fluorophenyl)methoxyimino]-1-methyl-ethyl]-4-[5-(trifluoromethyl)-1,2,4-oxadiazol-3-yl]benzamide] | ≥ 80% | ≥ 80% | 
8 | O=C(NCC=NOCc1ccc(Cl)cc1)c1ccc(-c2noc(C(F)(F)F)n2)cc1 [Compound 1.103, N-[2-[(4-chlorophenyl)methoxyimino]ethyl]-4-[5-(trifluoromethyl)-1,2,4-oxadiazol-3-yl]benzamide] |  |  | ≥ 80%
9 | CC(CNC(=O)c1ccc(-c2noc(C(F)(F)F)n2)cc1)=NOCc1ccc(F)cc1 [Compound 1.140, N-[2-[(4-fluorophenyl)methoxyimino]propyl]-4-[5-(trifluoromethyl)-1,2,4-oxadiazol-3-yl]benzamide] | ≥ 80% |  | 
10 | CC(C=NOCC(F)(F)F)NC(=O)c1ccc(-c2noc(C(F)(F)F)n2)cc1 (stereo not drawn) [Compound 1.51, N-[1-methyl-2-(2,2,2-trifluoroethoxy-imino)ethyl]-4-[5-(trifluoromethyl)-1,2,4-oxadiazol-3-yl]benzamide] | ≥ 80% | ≥ 80% | 
11 | CC(CNC(=O)c1ccc(-c2noc(C(F)(F)F)n2)cc1)=NOCc1ccc([N+](=O)[O-])cc1 [Compound 1.105, N-[2-[(4-nitrophenyl)methoxyimino]propyl]-4-[5-(trifluoromethyl)-1,2,4-oxadiazol-3-yl]benzamide] |  |  | ≥ 80%
12 | CC(C=NOCc1ccc(F)cc1)NC(=O)c1ccc(-c2noc(C(F)(F)F)n2)cc1 (stereo not drawn) [Compound 1.52, N-[2-[(4-fluorophenyl)methoxyimino]-1-methyl-ethyl]-4-[5-(trifluoromethyl)-1,2,4-oxadiazol-3-yl]benzamide] | ≥ 80% | ≥ 80% | 
13 | CC(C=NOCC1CC1)NC(=O)c1ccc(-c2noc(C(F)(F)F)n2)cc1 (stereo not drawn) [Compound 1.57, N-[2-(cyclopropyl-methoxyimino)-1-methyl-ethyl]-4-[5-(trifluoromethyl)-1,2,4-oxadiazol-3-yl]benzamide] | ≥ 80% | ≥ 80% | 
14 | CCCCCCCCCCCCON=CCNC(=O)c1ccc(-c2noc(C(F)(F)F)n2)cc1 [Compound 1.73, N-(2-dodecoxyimino-ethyl)-4-[5-(trifluoromethyl)-1,2,4-oxadiazol-3-yl]benzamide] |  | ≥ 80% | 
15 | COc1ccccc1CON=CC(C)NC(=O)c1ccc(-c2noc(C(F)(F)F)n2)cc1 (stereo not drawn) [Compound 1.23, N-[2-[(2-methoxyphenyl)methoxyimino]-1-methyl-ethyl]-4-[5-(trifluoromethyl)-1,2,4-oxadiazol-3-yl]benzamide] |  | ≥ 80% | 
16 | CCCCON=C(C)CNC(=O)c1ccc(-c2noc(C(F)(F)F)n2)cc1 [Compound 1.128, N-(2-butoxyiminopropyl)-4-[5-(trifluoromethyl)-1,2,4-oxadiazol-3-yl]benzamide] | ≥ 80% | ≥ 80% | 
17 | CC(C=NOCc1ccccc1)NC(=O)c1ccc(-c2noc(C(F)(F)F)n2)cc1 (stereo not drawn) [Compound 1.47, N-(2-benzyloxyimino-1-methyl-ethyl)-4-[5-(trifluoromethyl)-1,2,4-oxadiazol-3-yl]benzamide] | ≥ 80% | ≥ 80% | 
18 | O=C(NCC=NOCc1ccc(F)cc1)c1ccc(-c2noc(C(F)(F)F)n2)cc1 [Compound 1.96, N-[2-[(4-fluorophenyl)methoxyimino]ethyl]-4-[5-(trifluoromethyl)-1,2,4-oxadiazol-3-yl]benzamide] | ≥ 80% |  | 
19 | CC(C=NOCc1ccccc1Cl)NC(=O)c1ccc(-c2noc(C(F)(F)F)n2)cc1 (stereo not drawn) [Compound 1.22, N-[2-[(2-chlorophenyl)methoxyimino]-1-methyl-ethyl]-4-[5-(trifluoromethyl)-1,2,4-oxadiazol-3-yl]benzamide] | ≥ 80% | ≥ 80% | 
20 | COc1ccccc1CON=C(C)CNC(=O)c1ccc(-c2noc(C(F)(F)F)n2)cc1 [Compound 1.112, N-[2-[(2-methoxyphenyl)methoxyimino]propyl]-4-[5-(trifluoromethyl)-1,2,4-oxadiazol-3-yl]benzamide] | ≥ 80% |  | 
21 | O=C(NCC=NOCc1c(Cl)cccc1Cl)c1ccc(-c2noc(C(F)(F)F)n2)cc1 [Compound 1.84, N-[2-[(2,6-dichlorophenyl)methoxyimino]ethyl]-4-[5-(trifluoromethyl)-1,2,4-oxadiazol-3-yl]benzamide] |  | ≥ 80% | 
22 | CC(C=NOCc1ccc(Cl)cc1)NC(=O)c1ccc(-c2noc(C(F)(F)F)n2)cc1 (stereo not drawn) [Compound 1.59, N-[2-[(4-chlorophenyl)methoxyimino]-1-methyl-ethyl]-4-[5-(trifluoromethyl)-1,2,4-oxadiazol-3-yl]benzamide] |  | ≥ 80% | 
23 | Cc1ccc(CON=CCNC(=O)c2ccc(-c3noc(C(F)(F)F)n3)cc2)cc1 [Compound 1.63, N-[2-(p-tolylmethoxy-imino)ethyl]-4-[5-(trifluoromethyl)-1,2,4-oxadiazol-3-yl]benzamide] |  | ≥ 80% | 
24 | O=C(NCC=NOCc1cccc(Cl)c1)c1ccc(-c2noc(C(F)(F)F)n2)cc1 [Compound 1.97, N-[2-[(3-chlorophenyl)methoxyimino]ethyl]-4-[5-(trifluoromethyl)-1,2,4-oxadiazol-3-yl]benzamide] |  |  | ≥ 80%
